According to paper PMC5393024, “Discovery and characterization of natural tropolones as inhibitors of the antibacterial target CapF from Staphylococcus aureus” (Scientific Reports, 2015):
Where two headings read alike, the source gives them in different places.

Tests used:
[1] = biological target: holo-CapF (reconstituted with Zn^2+) (Staphylococcus aureus, UniProt A0A0H3JP37); assay: ITC binding to CapF reconstituted with Zn2+ (holo-CapF)
From the text: Because tropolone and its analogs have been described as metal chelators in proteins, we anticipated that binding of the inhibitor to CapF is governed by the Zn^2+ ion present in the cupin domain[12]. To confirm this hypothesis, we performed two different types of experiments. First, we determined the binding properties of 3-isopropenyl-tropolone to apo-CapF (i.e. Zn^2+-depleted CapF) and to holo-CapF (reconstituted with Zn^2+) by isothermal titration calorimetry (ITC). The stoichiometry is consistent with a 1:1 binding model.
Figure 3 Binding of 3-isopropenyl-tropolone to CapF requires Zn^2+. CapF (150 μM) reconstituted with Zn^2+ was titrated with 1.65 mM inhibitor in the absence (a) or the presence (b) of 1 mM EDTA. The upper panels correspond to the titration data, and the lower panels to the integrated binding isotherms. (c) Binding competition assay. CapF (1.0 μM) reconstituted with Zn^2+ in the presence of the Zn^2+-sensitive dye FluoZin-3 (1.0 μM) was titrated with 3-isopropenyl-tropolone (λEX = 490 nm; λEM = 520 nm).
Binding constants and thermodynamic parameters of the interaction between CapF and fragment compounds were determined with an iTC200 instrument (GE Healthcare) at 25 °C. Samples were equilibrated in a buffer composed of 10 mM HEPES (pH 7.4) and 150 mM NaCl supplemented with 5% (v/v) DMSO. CapF at 150–270 μM was titrated with compounds at 0.5–1.65 mM. Analysis of the data was performed with ORIGIN7 using a one-site binding model.
Figure S8. Binding isotherms of compounds with CapF as determined by ITC. (a) tropone, (b) 2-Cl-tropone, (c) tropolone, (d) 4-isopropyl-tropolone. Concentration of CapF in the cell was 150 µM, except in panel (a) where it was 270 µM. Concentration of compounds was 1.65 mM, except in panel (a) where it was 0.5 mM. Titrations were performed in an iTC200 instrument at 25 °C.
Data analysis was carried out with ORIGIN.

CapF [2] = assay: NADPH consumption assay (absorbance at 340 nm); assay type: biochemical, Staphylococcus aureus; settings: 0.02 μM CapF, 1.0 μM CapE, 125 μM UDP-D-GlcNAc, 250 μM NADPH, 37 °C
Protocol: A second assay monitoring the consumption of NADPH corroborates the inhibitory effect of 3-isopropenyl-tropolone (Fig. 2c). This assay is sensitive to the NADPH consumed by the SDR domain during the second reaction catalyzed by CapF (reduction step). […] Nevertheless, additional experiments were required to corroborate that idea (see below).
The enzymatic performance of CapF was evaluated by examining the consumption of NADPH spectrophotometrically, or by monitoring the disappearance of substrate and the formation of product by HPLC[9][12]. First, the time-dependent consumption of NADPH (monitored from a decrease of adsorption at 340 nm) was carried out in 384-well plates at a final volume of 50 μL. The solution contained 1.0 μM CapE, 0.02 μM CapF, 125 μM UDP-D-GlcNAc (substrate), 250 μM NADPH and fragment compounds at various concentrations in HBS supplemented with 0.005% (v/v) Tween-20 and 5% (v/v) DMSO. Each reaction mixture was incubated at 37 °C and the absorption at 340 nm was measured with a plate reader (PHERAstar, BMG Labtech, Durham, NC).
Figure S7. (a) Structure of compounds employed. (b-d) Time course of NADPH consumption by CapF in the presence of (b) tropolone, (c) 4-isopropyl-tropolone, and (d) 2-Cl-tropone. Increasing the concentration of compounds decreases the rate of consumption of NADPH. (e-g) Inhibition after two hours for (e) tropolone, (f) 4-isopropyl-tropolone, and (g) 2-Cl-tropone. Concentration of CapE and CapF was 1.0 µM and 0.02 µM, respectively. Concentration of NADPH and UDP-D-GlcNAc was 250 µM and 125 µM, respectively. The change of absorbance was calculated with respect to a control assay in the absence of CapF.
(1 picture or pasted object on this page, not shown here)

CapF [3] = settings: cited from earlier work

Chain of holo-CapF (reconstituted with Zn^2+) (A0A0H3JP37 entry or part of it): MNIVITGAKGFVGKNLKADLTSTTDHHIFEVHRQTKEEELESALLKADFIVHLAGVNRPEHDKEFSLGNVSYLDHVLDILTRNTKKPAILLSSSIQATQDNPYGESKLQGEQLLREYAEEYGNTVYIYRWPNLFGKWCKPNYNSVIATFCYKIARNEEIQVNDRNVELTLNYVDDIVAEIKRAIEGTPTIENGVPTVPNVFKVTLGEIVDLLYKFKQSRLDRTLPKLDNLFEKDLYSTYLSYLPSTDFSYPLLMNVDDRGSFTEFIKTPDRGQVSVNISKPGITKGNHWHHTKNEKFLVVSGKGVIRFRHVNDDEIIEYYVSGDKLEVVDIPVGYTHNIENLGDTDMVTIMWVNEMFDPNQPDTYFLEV

In the case of `O=c1cccccc1Cl` [2-Cl-tropone], the “binding to CapF by ITC” value ([1]; ITC, 25 °C) is reported as “not detected” and the “inhibition of NADPH consumption” value (CapF [2]) is reported as “did not significantly inhibit”.

For `CC(C)c1cccc(=O)c(O)c1` [4-isopropyl-tropolone], the Kd ([1]; ITC, 25 °C, 10 mM HEPES pH 7.4, 150 mM NaCl, 5% DMSO, one-site model, read-out: KD) was 1800 µM, the Kd ([1]; ITC, 25 °C, read-out: KD) was 1800 µM and the “n (binding stoichiometry)” value ([1]; ITC, stoichiometry was fixed to n = 1 in the fit) was 1.0. The “inhibition of NADPH consumption” value (CapF [2]) was “inhibited the consumption of NADPH in a concentration-dependent basis”.

With `O=c1cccccc1O` [tropolone] the Kd [1] was 38 ± 7 µM, the “n (binding stoichiometry)” value ([1]; ITC, 25 °C) was 1.1 ± 0.2 and the “ΔH°” value ([1]; ITC, 25 °C) was -12.1 ± 3.3 kJ/mol. The “−TΔS°” value ([1]; ITC, 25 °C) was -13.4 ± 4.18 kJ/mol, the “ligand efficiency (LE = −ΔG/HAC)” value ([1]; from ITC binding free energy) was 2.8 kJ/mol and the “inhibition of NADPH consumption” value (CapF [2]) was “inhibited the consumption of NADPH in a concentration-dependent basis”.

With `O=c1cccccc1` [tropone] the “binding to CapF by ITC” value ([1]; ITC, 25 °C) was “not detected” and the “inhibition of NADPH consumption” value (CapF [2]) was “did not significantly inhibit”.

For NADPH, the Kd (CapF [3]) is given as 1.6 µM.
